Our source for the Ki, IC50 and Activity values is ChEMBL document CHEMBL1641574 (Bioorg Med Chem, 2011).

Calls of active or inactive are those of the source. No cut-off for these calls is given here.

What all share (format): cell-based
Assay [1] has as its target T1, Sodium-dependent dopamine transporter (Homo sapiens, UniProt Q01959). Kind of assay: Displacement of [3H]WIN-35428 from human DAT stably expressed in mouse N2A cells by scintillation countnig.
In assay [2] the target is T1, Sodium-dependent dopamine transporter. Briefly: Inhibition of [3H]dopamine uptake at human DAT expressed in mouse N2A cells.
Assay [3] shares this target. Briefly: Binding affinity to human DAT expressed in UV irradiated mouse N2A cells by photoaffinity labeling assay. The note with it: tested as the 125I-labelled form.

T1 sequence (Q01959 whole entry): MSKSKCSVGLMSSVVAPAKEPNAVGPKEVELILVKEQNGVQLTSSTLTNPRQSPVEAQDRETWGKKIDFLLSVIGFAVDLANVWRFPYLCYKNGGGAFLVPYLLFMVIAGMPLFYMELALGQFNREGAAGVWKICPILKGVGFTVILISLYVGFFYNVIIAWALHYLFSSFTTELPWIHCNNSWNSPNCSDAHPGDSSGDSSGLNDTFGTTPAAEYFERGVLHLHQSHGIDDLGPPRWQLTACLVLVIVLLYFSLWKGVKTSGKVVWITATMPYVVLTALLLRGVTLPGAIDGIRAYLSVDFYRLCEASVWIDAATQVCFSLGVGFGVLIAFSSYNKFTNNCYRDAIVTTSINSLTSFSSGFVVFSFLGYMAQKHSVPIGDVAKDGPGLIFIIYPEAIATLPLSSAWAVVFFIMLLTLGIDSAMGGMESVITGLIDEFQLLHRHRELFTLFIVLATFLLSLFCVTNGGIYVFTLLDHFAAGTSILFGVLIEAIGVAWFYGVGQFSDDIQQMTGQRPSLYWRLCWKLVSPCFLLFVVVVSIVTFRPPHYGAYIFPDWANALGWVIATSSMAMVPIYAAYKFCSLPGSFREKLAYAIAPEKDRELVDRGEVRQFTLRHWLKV

Compound `COC(=O)[C@H](c1cccc(I)c1)[C@H]1CCCCN1` (racemic) gave a Ki in assay [1] of 4.5 nM. Besides, in assay [2], the IC50 came to 14 nM.
In turn, `COC(=O)[C@H](c1ccc(I)cc1)[C@H]1CCCCN1Cc1ccc(N=[N+]=[N-])cc1` (racemic) registered a Ki in assay [1] of 363 nM. In assay [2], this compound came in with an IC50 of 2760 nM. Also, the result in assay [3] was Active.
`COC(=O)[C@H](c1cccc(I)c1)[C@H]1CCCCN1Cc1cccc(N=[N+]=[N-])c1` (racemic) gave a Ki in assay [1] of 2060 nM. For the same compound, the IC50 in assay [2] turned out to be 4630 nM.
For `COC(=O)[C@H](c1ccc(I)cc1)[C@H]1CCCCN1` (racemic) the same measures were 14 nM and 11 nM.
The compound `COC(=O)[C@H](c1ccc(I)cc1)[C@H]1CCCCN1Cc1cccc(N=[N+]=[N-])c1` (racemic) gave a Ki in assay [1] of 2750 nM. The compound further returned an IC50 in assay [2] of 7970 nM.
For `COC(=O)[C@H](c1cccc(I)c1)[C@H]1CCCCN1Cc1ccc(N=[N+]=[N-])cc1` (racemic) the same measures were 658 nM and 1830 nM.
For `COC(=O)[C@H](c1cccc(I)c1)[C@H]1CCCCN1Cc1ccccc1N=[N+]=[N-]` (racemic) the same measures were 1110 nM and 2700 nM.
For `COC(=O)[C@H](c1ccc(I)cc1)[C@H]1CCCCN1Cc1ccccc1N=[N+]=[N-]` (racemic) the same measures were 517 nM and 1230 nM.
